Results published in US20260226101A1, “PEPTIDE WITH ANTI-INFLAMMATORY AND ANTI-MICROBIAL ACTIVITY” (priority 2023, published 2026).
Ends that are not written are not given here.

Assays:
[1] = system: Escherichia coli ATCC 8739; experiment: Time-kill assay; format: cell-based; settings: E. coli
Description: The survival of bacteria, time kill efficacy assay of IS 111 was further evaluated for activity against bacterial strain mentioned above according to CLSI reference method, with slightly modification. MICs were determined by broth microdilution assay as described above. […] Test tubes of MHB without test compound IS 111 were used as vehicle controls. Overnight cultures of the bacterial strains at cell densities of approximately 1×10^8 CFU/ml were used to inoculate both test and control tubes. The standard tube dilution method was opted to evaluate the time-kill efficacy of bacteria. Bacterial inoculum (1 mL) was diluted by adding 9 mL sterile saline solution and serially diluted up to 10^−3. […] 100 μL incubated suspension was transferred on the agar plates and spread through the spreader. Colony counts were performed after 24 h incubation at 37° C. Plates with 10-300 colonies were used for these counts, and the kill rate was determined by plotting log 10 viable counts (CFU/ml) against time. Bactericidal activity was defined as a ≥3 log 10 decreases in CFU/ml of the initial microbial population, while bacteriostatic activity was defined was defined as a <3 log 10 decrease in CFU/ml. The assay was performed in triplicate [Olufunmiso O Olajuyigbe et al., 2015; Sutthiwan Thammawat et al., 2017]
The time-kill kinetics antibacterial study of the Peptide IS 111 was carried out to assess the killing rate of the compound within a given contact time. The survival of bacteria, time kill efficacy assay of IS 111 was further evaluated for activity against Escherichia coli ATCC 8739 and Staphylococcus aureus ATCC 6538, Pseudomonas aeruginosa ATCC 9027 and Klebsiella pneumoniae ATCC 700603 according to CLSI reference method, with slightly modification. MICs were determined by broth microdilution assay as described above. […] 10. Test tubes of MHB without test compound Peptide IS 111 were used as vehicle controls. Overnight cultures of the bacterial strains at cell densities of approximately 1×10^6 CFU/ml were used to inoculate both test and control tubes.
After each interval, ten-fold dilutions were prepared with normal saline, and 100 μL incubated suspension was transferred on the agar plates and spread through the spreader. Colony counts were performed after 24 h incubation at 37° C. Plates with 10-300 colonies were used for these counts, and the kill rate was determined by plotting log 10 viable counts (CFU/ml) against time. Bactericidal activity was defined as a ≥3 log 10 decrease in CFU/ml of the initial microbial population, while bacteriostatic activity was defined as a <3 log 10 decrease in CFU/ml. The assay was performed in triplicate. The proportion of cells surviving at 60 min was calculated, as was the mean and standard deviation. Proportions of surviving cells were compared using Student's 2-tailed t-test, assuming unequal variance and differences were considered significant where p≤0.05.

[2] = system: LPS-stimulated RAW 264.7 cells; experiment: ELISA of cytokines in supernatants of LPS-stimulated RAW 264.7 cells; format: cell-based, murine
Description: Cells were sub-cultured by scraping when plates reached 70-80% confluence with a 1:5 ratio in fresh medium. RAW 264.7 cells were plated at density of 1×10^5 cells and allowed for attachment. The growth medium was then replaced with fresh medium without FBS and incubated for 6 h then cells were pre-treated with different concentrations of synthetic peptides: IS 111 (3.12, 6.25, 12.5, 25, 50 and 100 μg/mL) or dexamethasone (500 μg/mL) as a positive control for 1 h followed by stimulation of LPS (1 μg/mL) and then further incubated for 18 h and were allowed to adhere. After 18 h of incubation, plates were centrifuged for 6 min at 400×g and the supernatants and cell lysates were collected and kept frozen at −80° C. until used for further analysis.
At the end of the treatment period, cells were harvested in RNA isoplus reagent for subsequent cellular RNA extraction, for RTqPCR. The pro & anti-inflammatory cytokine production in supernatants was estimated by using ELISA, RTqPCR and western blotting in cell lysates. The experiment was carried out in triplicate. LPS and Dexamethasone were used as the controls.
The following treatments were applied for the anti-inflammatory test: • (1) The negative control: RAW 264.7 cells without being induced by lipopolysaccharide; no drug treatment. • (2) The positive control: RAW264.7 cells that were induced by […] of lipopolysaccharide (LPS group). • (3) The mixture of Synthetic peptides: IS 111 (3.12, 6.25, 12.5, 25, 50 and 100 μg/ml), LPS (1 μg/mL) and RAW 264.7 cells; and • (4) The standard positive control: The mixture of dexamethasone (500 μg/mL), LPS (1 μg/mL), and RAW 264.7 cells.
The levels of IL-6, TNF-α, IL-1β, and IL-10 in the supernatants of RAW 264.7 cell cultures were determined using an ELISA kit, according to the manufacturer's instructions (R&D Systems).

[3] = 3.12-100 μg/mL pretreatment, LPS 18 h, vs LPS group

“FAKKFAK [IS 111, Phe-Ala-Lys-Lys-Phe-Ala-Lys]” was tested, and the Viable count ([1]; 0.5 × MIC, 0 h) was 6.4 ± 0.48 1 × 10^5 CFU/ml, the Viable count ([1]; 0.5 × MIC, 1 h) was 5.5 ± 0.28 1 × 10^5 CFU/ml and the Viable count ([1]; 0.5 × MIC, 2 h) was 5.0 ± 0.20 1 × 10^5 CFU/ml. For the same substance, the Viable count ([1]; 0.5 × MIC, 3 h) was 4.2 ± 0.10 1 × 10^5 CFU/ml, the Viable count ([1]; 0.5 × MIC, 4 h) was 3.7 ± 0.08 1 × 10^5 CFU/ml and the Viable count ([1]; 0.5 × MIC, 5 h) was 2.9 ± 0.35 1 × 10^5 CFU/ml. The Viable count ([1]; 0.5 × MIC, 12 h) was 2.5 ± 0.35 1 × 10^5 CFU/ml, the Viable count ([1]; 0.5 × MIC, 24 h) was 2.3 ± 0.43 1 × 10^5 CFU/ml and the Reduction in viability ([1]; 0.5×MIC (0.78 μg/ml), 24 h) was 2 log 10 CFU/ml. For the same substance, the “Type of activity (bacteriostatic or bactericidal)” value ([1]; 0.5×MIC and 1×MIC, 24 h) was “bacteriostatic”, the Viable count ([1]; 1 × MIC, 0 h) was 6.5 ± 0.10 1 × 10^5 CFU/ml and the Viable count ([1]; 1 × MIC, 1 h) was 4.2 ± 0.45 1 × 10^5 CFU/ml. For the same substance, the Viable count ([1]; 1 × MIC, 2 h) was 2.1 ± 0.38 1 × 10^5 CFU/ml, the Viable count ([1]; 1 × MIC, 3 h) was 1.2 ± 0.28 1 × 10^5 CFU/ml and the Viable count ([1]; 1 × MIC, 4 h) was 0.6 ± 0.20 1 × 10^5 CFU/ml. The Viable count ([1]; 1 × MIC, 5 h) was 0.4 ± 0.10 1 × 10^5 CFU/ml, the Viable count ([1]; 1 × MIC, 12 h) was 0.2 ± 0.08 1 × 10^5 CFU/ml and the Viable count ([1]; 1 × MIC, 24 h) was 0 1 × 10^5 CFU/ml. For the same substance, the “Time to complete reduction of initial inoculum” value ([1]; 1×MIC) was 24 h, the Viable count ([1]; 5 × MIC, 0 h) was 6.5 ± 0.23 1 × 10^5 CFU/ml and the Viable count ([1]; 5 × MIC, 1 h) was 0.5 ± 0.05 1 × 10^5 CFU/ml. For the same substance, the Viable count ([1]; 5 × MIC, 2 h) was 0.2 ± 0.05 1 × 10^5 CFU/ml, the Viable count ([1]; 5 × MIC, 3 h) was 0 1 × 10^5 CFU/ml and the Viable count ([1]; 5 × MIC, 4 h) was 0 1 × 10^5 CFU/ml. For the same substance, the Viable count ([1]; 5 × MIC, 5 h) was 0 1 × 10^5 CFU/ml, the Viable count ([1]; 5 × MIC, 12 h) was 0 1 × 10^5 CFU/ml and the Viable count ([1]; 5 × MIC, 24 h) was 0 1 × 10^5 CFU/ml. For the same substance, the “IL-1β production (ELISA)” value [2, 3] was “inhibited”, the “IL-6 levels (ELISA)” value [2, 3] was “reduced” and the “IL-10 levels (ELISA)” value [2, 3] was “significantly increased”. The “TNF-alpha levels (ELISA)” value [2, 3] was “significantly reduced”, the “Concentration with better inhibition of TNF-α, IL-1β and IL-6 than 100 μg/mL” value ([2]; LPS induced RAW 264.7) was 25 µg/mL and the NO production ([2]; LPS-stimulated RAW cells, summary table) was “↓Cytotoxicity; ↓ NO production; ↓”.
